For data set [1], the target named is T1, Nuclear receptor subfamily 1 group D member 1 (Homo sapiens, UniProt P20393).
T1 sequence (P20393 whole entry): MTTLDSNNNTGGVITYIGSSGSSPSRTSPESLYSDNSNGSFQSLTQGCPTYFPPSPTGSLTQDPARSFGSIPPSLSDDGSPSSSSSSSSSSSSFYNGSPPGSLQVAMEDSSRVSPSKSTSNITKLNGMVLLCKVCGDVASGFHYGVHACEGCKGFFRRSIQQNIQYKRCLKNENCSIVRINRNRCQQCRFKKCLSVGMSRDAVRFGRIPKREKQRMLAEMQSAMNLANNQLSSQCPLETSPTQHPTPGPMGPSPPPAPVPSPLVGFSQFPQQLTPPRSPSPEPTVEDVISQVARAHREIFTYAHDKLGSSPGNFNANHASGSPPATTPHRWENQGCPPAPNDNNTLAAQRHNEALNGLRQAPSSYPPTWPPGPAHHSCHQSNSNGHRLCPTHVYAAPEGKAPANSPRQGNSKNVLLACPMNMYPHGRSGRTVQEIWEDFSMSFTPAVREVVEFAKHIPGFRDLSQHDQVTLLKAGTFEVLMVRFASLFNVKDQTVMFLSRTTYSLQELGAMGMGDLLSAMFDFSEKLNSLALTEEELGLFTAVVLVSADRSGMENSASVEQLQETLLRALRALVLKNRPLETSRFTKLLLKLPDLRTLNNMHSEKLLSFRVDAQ
As to the kind of experiment: Agonist activity at his6-tagged human REV-ERBalpha LBD (281 to 614 residues) expressed in Escherichia coli assessed as increase in SMRT corepressor peptide […] by TR-FRET assay incubated for 2 hrs by TR-FRET assay. In general terms: Time-resolved FRET reads energy transfer from a long-lived donor to a nearby acceptor.

Data set [2] is described as follows: Metabolic stability in mouse liver microsome assessed as half life. It counts as ADME. The following applies: liver microsomes. For orientation: Microsomes from liver hold many membrane-bound enzymes, among them those of drug oxidation.
The nature of data set [3]: Metabolic stability in human liver microsome assessed as half life. Particulars: liver microsomes. It counts as ADME.
The target of data set [4] is CYP3A4 (Homo sapiens, UniProt P08684). As to the kind of experiment: Inhibition of CYP3A4 (unknown origin) at 10 uM relative to control. The class given is ADME.
Chain of CYP3A4 (P08684 whole entry): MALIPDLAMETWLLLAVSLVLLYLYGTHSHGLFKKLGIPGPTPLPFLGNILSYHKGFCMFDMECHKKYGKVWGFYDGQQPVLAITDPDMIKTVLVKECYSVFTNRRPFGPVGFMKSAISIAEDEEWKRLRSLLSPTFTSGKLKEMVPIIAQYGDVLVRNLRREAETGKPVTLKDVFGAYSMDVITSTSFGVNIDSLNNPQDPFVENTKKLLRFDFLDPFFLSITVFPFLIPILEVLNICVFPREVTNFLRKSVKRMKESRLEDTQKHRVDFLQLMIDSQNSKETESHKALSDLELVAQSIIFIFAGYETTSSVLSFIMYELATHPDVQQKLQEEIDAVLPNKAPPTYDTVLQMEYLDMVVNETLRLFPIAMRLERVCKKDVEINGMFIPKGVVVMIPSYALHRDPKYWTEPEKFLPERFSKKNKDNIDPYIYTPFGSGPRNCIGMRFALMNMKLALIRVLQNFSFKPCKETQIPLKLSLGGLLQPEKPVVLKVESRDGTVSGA
Data set [5] can be described thus: Cmax in mouse at 50 mg/kg, ip measured at 2 hrs. It counts as ADME, organism-based. The arrangement: dose 50 mg/kg, time 2 hrs, route ip. Particulars: in vivo.
A short description of data set [6]: Cmax in mouse at 50 mg/kg, ip measured for 12 hrs. The class given is ADME, organism-based. The arrangement: time 12 hrs, dose 50 mg/kg, route ip. The following applies: in vivo.
The target of data set [7] is T1, Nuclear receptor subfamily 1 group D member 1. Kind of data set: Agonist activity at REV-ERBalpha LBD in HEK293 cells co-transfected with pG5-UAS pCMV-Gal4 incubated for 18 hrs by multimode plate reader analysis. It counts as cell-based.
The target of data set [8] is T2, Nuclear receptor subfamily 1 group D member 2 (Homo sapiens) (UniProt Q14995).
T2 sequence (whole entry): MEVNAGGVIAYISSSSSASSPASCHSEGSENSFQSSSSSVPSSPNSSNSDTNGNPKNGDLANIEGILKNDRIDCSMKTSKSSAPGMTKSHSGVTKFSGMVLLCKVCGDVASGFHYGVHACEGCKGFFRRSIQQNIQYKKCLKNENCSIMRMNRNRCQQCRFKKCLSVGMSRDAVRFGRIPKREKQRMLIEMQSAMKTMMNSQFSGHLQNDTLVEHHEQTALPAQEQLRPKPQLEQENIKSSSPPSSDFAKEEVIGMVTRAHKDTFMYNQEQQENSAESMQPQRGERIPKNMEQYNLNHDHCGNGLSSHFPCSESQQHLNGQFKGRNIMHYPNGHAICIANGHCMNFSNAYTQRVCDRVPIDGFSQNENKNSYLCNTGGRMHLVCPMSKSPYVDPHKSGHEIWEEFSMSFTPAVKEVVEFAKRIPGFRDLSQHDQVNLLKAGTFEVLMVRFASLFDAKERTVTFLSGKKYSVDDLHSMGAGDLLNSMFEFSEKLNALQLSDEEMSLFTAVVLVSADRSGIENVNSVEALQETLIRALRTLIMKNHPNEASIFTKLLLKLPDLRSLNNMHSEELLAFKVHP
As to the kind of experiment: Agonist activity at human REV-ERBbeta.

The target in data set [9] is CYP2D6 (Homo sapiens, UniProt P10635). As to the kind of experiment: Inhibition of CYP2D6 (unknown origin) at 10 uM relative to control. It counts as ADME.
Chain of CYP2D6 (P10635 whole entry): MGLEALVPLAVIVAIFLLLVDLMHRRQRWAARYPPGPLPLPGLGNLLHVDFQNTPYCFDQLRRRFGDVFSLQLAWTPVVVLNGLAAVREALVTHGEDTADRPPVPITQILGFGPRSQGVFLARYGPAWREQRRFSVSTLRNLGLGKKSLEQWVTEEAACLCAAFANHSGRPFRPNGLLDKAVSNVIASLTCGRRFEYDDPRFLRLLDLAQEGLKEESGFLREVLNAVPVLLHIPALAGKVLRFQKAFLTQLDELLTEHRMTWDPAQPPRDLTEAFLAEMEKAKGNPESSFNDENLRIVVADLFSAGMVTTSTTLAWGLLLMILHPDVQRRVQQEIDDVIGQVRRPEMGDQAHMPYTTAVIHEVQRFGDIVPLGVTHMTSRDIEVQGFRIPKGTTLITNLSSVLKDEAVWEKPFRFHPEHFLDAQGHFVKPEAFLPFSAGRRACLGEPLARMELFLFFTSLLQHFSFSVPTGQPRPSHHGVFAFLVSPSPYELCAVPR
Data set [10] addresses T3, CYP1A2 (Homo sapiens, UniProt P05177).
T3 sequence (P05177 whole entry): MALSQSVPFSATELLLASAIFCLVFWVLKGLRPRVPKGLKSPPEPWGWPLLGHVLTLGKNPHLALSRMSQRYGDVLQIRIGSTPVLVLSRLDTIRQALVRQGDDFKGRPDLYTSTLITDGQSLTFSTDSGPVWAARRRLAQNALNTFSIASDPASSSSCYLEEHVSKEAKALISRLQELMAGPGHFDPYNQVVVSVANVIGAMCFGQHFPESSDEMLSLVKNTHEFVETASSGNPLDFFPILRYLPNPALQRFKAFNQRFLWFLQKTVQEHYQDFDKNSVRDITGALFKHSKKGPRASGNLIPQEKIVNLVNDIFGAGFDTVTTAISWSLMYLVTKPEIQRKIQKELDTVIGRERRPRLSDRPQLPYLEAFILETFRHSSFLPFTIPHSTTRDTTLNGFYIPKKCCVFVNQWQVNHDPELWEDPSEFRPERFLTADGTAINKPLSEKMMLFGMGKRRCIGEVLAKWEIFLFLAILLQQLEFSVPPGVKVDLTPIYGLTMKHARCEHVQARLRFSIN
Kind of data set: Inhibition of CYP1A2 (unknown origin) at 10 uM relative to control. The class given is ADME.

Data set [11] has as its target CYP2C9 (Homo sapiens, UniProt P11712). Kind of data set: Inhibition of CYP2C9 (unknown origin) at 10 uM relative to control. The class given is ADME.
The subject of data set [12] is Mus musculus. Kind of data set: Protection against experimental autoimmune encephalomyelitis C57BL/6 mouse model assessed as disease onset at 25 to 50 mg/kg, ip bid. It counts as functional, organism-based. Particulars: dose 25-50 mg/kg.
Data set [13] relates to Mus musculus. Kind of data set: Protection against experimental autoimmune encephalomyelitis C57BL/6 mouse model assessed as reduction in disease severity at 25 to 50 mg/kg, ip bid. It counts as functional, organism-based. The following applies: dose 25-50 mg/kg.
Data set [14] is described as follows: Toxicity in experimental autoimmune encephalomyelitis C57BL/6 mouse model assessed as animal weight loss at 25 to 50 mg/kg, ip bid. It counts as organism-based. Particulars: in vivo, dose 25-50 mg/kg.
Data set [15] concerns Mus musculus. As to the kind of experiment: Protection against experimental autoimmune encephalomyelitis C57BL/6 mouse model assessed as decrease in frequency of T cells at 25 to 50 mg/kg, ip bid by flow cytometry analysis. It counts as functional, organism-based. Particulars: T-cell, dose 25-50 mg/kg. (A flow cytometer gives signals particle by particle.)
In data set [16] the test system is Mus musculus. As to the kind of experiment: Protection against experimental autoimmune encephalomyelitis C57BL/6 mouse model assessed as decrease in number of T cells at 25 to 50 mg/kg, ip bid by flow cytometry analysis. The class given is functional, organism-based. The following applies: T-cell, dose 25-50 mg/kg.
Data set [17] relates to Mus musculus. Kind of data set: In-vivo agonist activity at REV-ERBalpha in experimental autoimmune encephalomyelitis C57BL/6 mouse model assessed as reduction in bmal1 mRNA expression by RT-PCR analysis. The class given is functional.
Data set [18] concerns Mus musculus. As to the kind of experiment: In-vivo agonist activity at REV-ERBalpha in experimental autoimmune encephalomyelitis C57BL/6 mouse model assessed as reduction in clock mRNA expression by RT-PCR analysis. The class given is functional.
The test system of data set [19] is Th17. As to the kind of experiment: Downregulation of IL-17A expression in human Th17 cells. The class given is functional, cell-based. Particulars: dose 1.25-10 µM.
Data set [20] is described as follows: Cytotoxicity against human Th17 cells assessed as reduction in cell viability at 1.25 to 10 uM. The class given is toxicity, cell-based. The following applies: th17, 10 µM, dose 1.25-10 µM.

Activity calls are given as the source filed them. No cut-off for these calls is given here. Where only a bound is given, the exact number is not on record here.

Chain of CYP2C9 (P11712 whole entry): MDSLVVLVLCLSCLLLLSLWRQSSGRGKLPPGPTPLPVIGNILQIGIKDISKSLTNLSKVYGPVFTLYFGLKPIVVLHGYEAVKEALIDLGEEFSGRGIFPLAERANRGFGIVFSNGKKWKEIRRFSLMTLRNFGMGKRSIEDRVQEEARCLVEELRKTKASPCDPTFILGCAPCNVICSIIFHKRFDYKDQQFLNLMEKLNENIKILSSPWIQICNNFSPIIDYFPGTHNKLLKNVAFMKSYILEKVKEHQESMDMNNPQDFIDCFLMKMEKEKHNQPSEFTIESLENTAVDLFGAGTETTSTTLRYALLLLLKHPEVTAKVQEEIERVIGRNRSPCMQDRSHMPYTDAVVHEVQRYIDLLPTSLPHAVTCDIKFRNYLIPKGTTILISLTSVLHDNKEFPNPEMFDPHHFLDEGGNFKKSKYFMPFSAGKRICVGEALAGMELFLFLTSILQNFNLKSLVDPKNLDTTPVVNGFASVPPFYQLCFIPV

For orientation: EC50 means the concentration needed to bring the measured effect to its halfway point. Turning to `CC(C)Cn1cc(CCNS(=O)(=O)N(C)C)c2ccc(-c3cncnc3)cc21`, the EC50 in [1] stood at 2900 nM.

Usually half-life stands for the time in which the quantity being followed falls by half. By inhibition is commonly meant the drop in the measured response relative to a control, in per cent. Low readings indicate little suppression, high ones strong suppression. Usually Cmax stands for the maximum level reached in the sampled fluid or tissue. `CC(C)Cn1cc(C(NS(=O)(=O)C2CC2)C(F)(F)F)c2ccc(-c3ccccc3C(F)(F)F)cc21` (stereo not given): the EC50 in [1] turned out to be 110 nM; in data set [7] it was 500 nM. Further, the figures for the half-life in data set [2] and in data set [3] were 32 min and 76 min, respectively. Besides, the inhibition at 10 µM in [4], in data set [9], in [10] and in data set [11] was less than 30% in each case. For the same compound, the values for the Cmax in data set [5] and in data set [6] were 12.2 µM and roughly 0.8 µM, respectively. Moreover, the result in data set [8] was inactive. For the same compound, the result in data set [12], in data set [13], in [15], in data set [16], in [17] and in [18] was Active. In data set [19], the outcome was Active. The Activity entry in [14] and in [20] was “Non-Toxic” throughout.

With `CC(C)Cn1cc(CCNS(=O)(=O)N(C)C)c2ccc(-c3ccccc3)cc21`, at 10 µM the inhibition in [4] was 22%.

As to `CC(C)Cn1cc(C(C)NS(=O)(=O)C2CC2)c2ccc(-c3ccccc3C(F)(F)F)cc21` (stereo not given), the EC50 in [1] worked out at 7 nM. Besides, the half-life came to 10 min in [2] and 9 min in [3].

As to `CC(C)Cn1cc(CCNS(=O)(=O)C2CC2)c2ccc(-c3ccncc3)cc21`, in [1], the EC50 came to 25 nM.

Consider `CC(C)Cn1cc(CCNS(=O)(=O)N(C)C)c2ccc(-c3ccccn3)cc21`, for which the concentration for a half-maximal effect (EC50) in data set [1] turned out to be 1000 nM. This compound also showed an inhibition at 10 µM in data set [4] of 96%.

Consider `CC(C)Cn1cc(CCNS(=O)(=O)N(C)C)c2ccccc21`, for which the concentration for a half-maximal effect (EC50) in data set [1] was found to be 990 nM.

Regarding `CC(C)Cn1cc(CCNS(=O)(=O)N(C)C)c2ccc(-c3cccc(C#N)c3)cc21`, in data set [1], the EC50 turned out to be 370 nM.

Regarding `CC(C)Cn1cc(CCNS(=O)(=O)N(C)C)c2ccc(-c3ccc(F)cc3)cc21`, the EC50 in data set [1] is 790 nM.

In the case of `CC(C)Cn1cc(CNS(=O)(=O)C2CC2)c2ccc(-c3ccccc3C(F)(F)F)cc21`, the half-life in [2] and in [3] was 5 min each time.

Take `CC(C)Cn1cc(CCNS(=O)(=O)N(C)C)c2ccc(-c3cccnc3)cc21`: in [1], the EC50 is 160 nM. The same compound registered an inhibition at 10 µM in data set [4] of 96%.

For `CC(C)Cn1cc(CCNS(=O)(=O)C2CC2)c2ccc(-c3ccccc3C(F)(F)F)cc21`, the half-life in [2] was 3 min; in data set [3], 4 min.

As for `CC(C)Cn1cc(C(C)(C)NS(=O)(=O)C2CC2)c2ccc(-c3ccccc3C(F)(F)F)cc21`, the half-life amounted to 3 min in [2] and 80 min in data set [3].

As to `CC(C)Cn1cc(CCNS(=O)(=O)N(C)C)c2ccc(-c3cnn(C)c3)cc21`, in [1], the EC50 is greater than 5000 nM.

Values taken from ChEMBL document CHEMBL5370656, “Structure-Activity Relationship and Biological Investigation of a REV-ERBα-Selective Agonist SR-29065 (34) for Autoimmune Disorders” (J Med Chem, 2023).
